The record followed here is patent US20260115190A1, “DISPERSIONS OF ETRUMADENANT” (Arcus Biosciences, Inc., priority 2022, published 2026).

A short description of data set [1]: Phase 1 relative bioavailability (capsule v. tablet) and food effect study. In kind it is in vivo, human. The text has this: This example describes a Phase 1 study to compare the single-dose PK of an etrumadenant tablet versus an etrumadenant capsule, in healthy adult participants (19-55 years of age), and to evaluate the effect of food on the single-dose PK of etrumadenant tablet, in healthy adult participants.
The study was an open-label, randomized, 3-treatment, 3 period crossover study to evaluate the relative bioavailability (BA) of etrumadenant tablet and capsule formulations and the effect of food on the tablet formulation. On Day 1 of each period, a single dose of etrumadenant was administered in a 3-period crossover fashion. Participants (n=24) received etrumadenant capsules under fasting (Treatment A) conditions and etrumadenant tablets under fasting (Treatment B) and fed (high-fat meal; Treatment C) conditions. PK samples for etrumadenant and its metabolites were taken predose and up to 120 hours post dose. There was a washout of at least 7 days between the etrumadenant doses. All participants who received at least one dose of etrumadenant (including participants who terminate the study early) were asked to return to the Clinical Research Unit (CRU) 14 (+2) days after the last dose for follow-up procedures, and to determine if any adverse event (AE) has occurred since the last study visit.
Study treatments are described as follows. […]
Additional PK parameters were calculated if deemed appropriate. […]

For data set [2], the target named is P-gp (Homo sapiens, UniProt P08183). The experiment in a line: In vitro transporter substrate data (P-gp). In kind it is in vitro ADME.
Sequence of P-gp (P08183 whole entry): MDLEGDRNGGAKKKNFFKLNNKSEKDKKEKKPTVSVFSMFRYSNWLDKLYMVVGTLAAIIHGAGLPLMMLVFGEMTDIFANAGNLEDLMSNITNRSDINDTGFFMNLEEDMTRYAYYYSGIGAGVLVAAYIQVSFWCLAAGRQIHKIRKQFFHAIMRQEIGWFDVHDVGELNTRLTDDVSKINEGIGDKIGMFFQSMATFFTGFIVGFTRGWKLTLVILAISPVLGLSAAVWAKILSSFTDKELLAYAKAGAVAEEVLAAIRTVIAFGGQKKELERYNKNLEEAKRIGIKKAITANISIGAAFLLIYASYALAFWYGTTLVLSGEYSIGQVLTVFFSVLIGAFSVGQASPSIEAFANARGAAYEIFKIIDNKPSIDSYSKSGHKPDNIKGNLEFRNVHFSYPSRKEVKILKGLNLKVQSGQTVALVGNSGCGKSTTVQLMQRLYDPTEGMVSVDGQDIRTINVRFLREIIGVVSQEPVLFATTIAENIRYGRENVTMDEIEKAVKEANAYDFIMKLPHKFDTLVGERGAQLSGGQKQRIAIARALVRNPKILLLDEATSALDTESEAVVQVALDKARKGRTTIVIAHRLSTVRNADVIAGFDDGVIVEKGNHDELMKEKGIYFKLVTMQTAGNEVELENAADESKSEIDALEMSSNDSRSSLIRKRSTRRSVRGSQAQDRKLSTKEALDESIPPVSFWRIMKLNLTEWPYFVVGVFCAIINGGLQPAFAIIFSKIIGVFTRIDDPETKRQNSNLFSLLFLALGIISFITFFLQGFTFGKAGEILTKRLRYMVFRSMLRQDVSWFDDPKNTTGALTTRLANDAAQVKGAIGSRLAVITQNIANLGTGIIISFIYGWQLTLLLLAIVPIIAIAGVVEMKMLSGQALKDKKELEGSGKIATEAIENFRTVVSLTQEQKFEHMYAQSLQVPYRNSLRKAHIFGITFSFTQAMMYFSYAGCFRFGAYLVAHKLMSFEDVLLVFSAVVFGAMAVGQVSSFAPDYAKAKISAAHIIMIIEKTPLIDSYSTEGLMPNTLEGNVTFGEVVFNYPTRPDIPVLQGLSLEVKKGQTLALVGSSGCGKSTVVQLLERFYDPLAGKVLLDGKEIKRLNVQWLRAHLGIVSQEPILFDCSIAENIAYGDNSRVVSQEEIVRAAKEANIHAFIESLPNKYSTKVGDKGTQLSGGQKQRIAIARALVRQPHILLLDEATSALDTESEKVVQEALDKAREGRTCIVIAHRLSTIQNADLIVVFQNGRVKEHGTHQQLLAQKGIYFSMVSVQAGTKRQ

Consider `Cc1c(C#N)cccc1-c1cc(-c2cn(Cc3cccc(C(C)(C)O)n3)nn2)nc(N)n1` [Etrumadenant, 3-[2-amino-6-(1-{[6-(2-hydroxypropan-2-yl)pyridine-2-yl]methyl}-1H-1,2,3-triazol-4-yl)pyrimidin-4-yl]-2-methylbenzonitrile], for which, in data set [1] (150 mg, fasting), the “Cmax, AUC and Tmax in capsules and tablets” value was “statistically equivalent”. The “effect of fed conditions on overall exposure (AUClast and AUCINF) compared to fasting condition” value in data set [1] (tablet 150 mg) is on record as “no effect”. In addition, in data set [2], the “substrate of P-gp” value was “substrate”.
